Assay results taken from ChEMBL document CHEMBL5230109, “Recent advances in epigenetic proteolysis targeting chimeras (Epi-PROTACs)” (Eur J Med Chem, 2020).

Legend:
Polycomb protein EED [1] = biological target: T1, Polycomb protein EED (Homo sapiens, UniProt O75530); test: Binding affinity to PRC2 catalytic core EED (unknown origin) by surface plasmon resonance assay
[2] = Inhibition of PRC2 catalytic core MTase activity (unknown origin) by MTase Glo assay; design: species or system Homo sapiens
KARPAS-422 = test: Antiproliferative activity against human KARPAS-422 cells assessed as growth inhibition after 14 days by Cell Titer-Glo luminescent assay; assay type: functional; details: KARPAS-422, 336 h, time 14 day
Histone deacetylase 1 = Histone deacetylase 1 (Homo sapiens, UniProt Q13547); test: Inhibition of human recombinant GST-tagged HDAC1 incubated for 20 mins by HDAC Glo assay
Histone deacetylase 2 = Histone deacetylase 2 (Homo sapiens, UniProt Q92769); test: Inhibition of human recombinant GST-tagged HDAC2 incubated for 20 mins by HDAC Glo assay
Histone deacetylase 3 = Histone deacetylase 3 (Homo sapiens, UniProt O15379); test: Inhibition of human recombinant HDAC3 incubated for 20 mins by HDAC Glo assay
[3] = biological target: Protein deacetylase HDAC6 (Homo sapiens, UniProt Q9UBN7); test: Inhibition of human recombinant GST-tagged HDAC6 incubated for 20 mins by HDAC Glo assay
Histone deacetylase 8 = Histone deacetylase 8 (Homo sapiens, UniProt Q9BY41); test: Inhibition of human recombinant His-tagged HDAC8 incubated for 20 mins by HDAC Glo assay
[4] = biological target: Polyamine deacetylase HDAC10 (Homo sapiens, UniProt Q969S8); test: Inhibition of human recombinant His-tagged HDAC10 incubated for 20 mins by HDAC Glo assay
[5] = biological target: T2, Bromodomain-containing protein 2 (Homo sapiens, UniProt P25440); test: Binding affinity to BRD2 BD1 domain (unknown origin)
[6] = biological target: T2, Bromodomain-containing protein 2; test: Binding affinity to BRD2 BD2 domain (unknown origin)
[7] = biological target: von Hippel-Lindau disease tumor suppressor/Bromodomain-containing protein 2 (Homo sapiens, UniProt P25440+P40337); test: PROTAC activity at BRD2/VHL in human 22Rv1 cells assessed as protein degradation measured after 16 hrs; assay type: cell-based
[8] = biological target: T3, von Hippel-Lindau disease tumor suppressor/Transcription intermediary factor 1-alpha (Homo sapiens, UniProt O15164+P40337); test: PROTAC activity at TRIM24/VHL (unknown origin) assessed as degradation protein; assay type: protein assay
[9] = biological target: Histone-lysine N-methyltransferase EZH2 (Homo sapiens, UniProt Q15910); test: Inhibition of EZH2 methyltransferase activity (unknown origin) assessed `transfer of [3H]methyl group from SAM to substrate by biochemical assay
[10] = biological target: T4, von Hippel-Lindau disease tumor suppressor/SWI/SNF-related matrix-associated actin-dependent regulator of chromatin subfamily A member 2 (Homo sapiens, UniProt P40337+P51531); test: PROTAC activity at SMARCA2/VHL in human MV4-11 cells assessed as degradation protein measured after 18 hrs; assay type: cell-based
[11] = biological target: von Hippel-Lindau disease tumor suppressor/SWI/SNF-related matrix-associated actin-dependent regulator of chromatin subfamily A member 4 (Homo sapiens, UniProt P40337+P51532); test: PROTAC activity at SMARCA4/VHL in human MV4-11 cells assessed as degradation protein measured after 18 hrs; assay type: cell-based
[12] = biological target: T5, Protein polybromo-1/von Hippel-Lindau disease tumor suppressor (Homo sapiens, UniProt P40337+Q86U86); test: PROTAC activity at PBRM1/VHL in human MV4-11 cells assessed as degradation protein measured after 18 hrs; assay type: cell-based
[13] = biological target: T4, von Hippel-Lindau disease tumor suppressor/SWI/SNF-related matrix-associated actin-dependent regulator of chromatin subfamily A member 2; test: PROTAC activity at SMARCA2/VHL in human NCI-H1568 cells assessed as degradation protein measured after 18 hrs; assay type: cell-based
[14] = biological target: T5, Protein polybromo-1/von Hippel-Lindau disease tumor suppressor; test: PROTAC activity at PBRM1/VHL in human NCI-H1568 cells assessed as degradation protein measured after 18 hrs; assay type: cell-based
[15] = biological target: SWI/SNF-related matrix-associated actin-dependent regulator of chromatin subfamily A member 2 (Homo sapiens, UniProt P51531); test: Inhibition of SMARCA2 BD (unknown origin)
[16] = biological target: SWI/SNF-related matrix-associated actin-dependent regulator of chromatin subfamily A member 4 (Homo sapiens, UniProt P51532); test: Inhibition of SMARCA4 BD (unknown origin)
[17] = Inhibition of […] BD5 (unknown origin); design: species or system Homo sapiens
MV4-11 = test: Antiproliferative activity against human MV4-11 cells measured after 7 days; assay type: functional, cell-based; details: MV4-11, 168 h
SK-MEL-5 = test: Antiproliferative activity against human SK-MEL-5 cells measured after 7 days; assay type: functional, cell-based; details: SK-MEL-5, 168 h
[18] = Antiproliferative activity against human NCI-H1568 cells measured after 7 days; assay type: functional, cell-based; details: NCI-H1568, 168 h
[19] = biological target: T3, von Hippel-Lindau disease tumor suppressor/Transcription intermediary factor 1-alpha; test: PROTAC activity at TRIM24/VHL in human HEK293FT cells assessed as degradation protein at 5 uM measured after 24 hrs; assay type: cell-based
[20] = biological target: T3, von Hippel-Lindau disease tumor suppressor/Transcription intermediary factor 1-alpha; test: PROTAC activity at TRIM24/VHL in human MOLM-13 cells assessed as degradation protein at 5 uM measured after 24 hrs; assay type: cell-based
[21] = biological target: T6, Bromodomain-containing protein 3 (Homo sapiens, UniProt Q15059); test: Binding affinity to BRD3 BD1 domain (unknown origin)
[22] = biological target: T6, Bromodomain-containing protein 3; test: Binding affinity to BRD3 BD2 domain (unknown origin)
[23] = biological target: T7, Bromodomain-containing protein 4 (Homo sapiens, UniProt O60885); test: Binding affinity to BRD4 BD1 domain (unknown origin)
[24] = biological target: T7, Bromodomain-containing protein 4; test: Binding affinity to BRD4 BD2 domain (unknown origin)
[25] = biological target: T8, Protein cereblon/Protein deacetylase HDAC6 (Homo sapiens, UniProt Q96SW2+Q9UBN7); test: PROTAC activity at HDAC6/CRBN in human MM.1S cells measured after 24 hrs; assay type: cell-based, MM1.S
[26] = biological target: Histone-lysine N-methyltransferase EZH1 (Homo sapiens, UniProt Q92800); test: Inhibition of EZH1 methyltransferase activity (unknown origin) assessed `transfer of [3H]methyl group from SAM to substrate by biochemical assay
[27] = biological target: T8, Protein cereblon/Protein deacetylase HDAC6; test: PROTAC activity at HDAC6/CRBN in human MM.1S cells; assay type: cell-based, MM1.S
MM1.S = test: Growth inhibition of human MM1.S cells; assay type: functional
[28] = biological target: von Hippel-Lindau disease tumor suppressor/Polycomb protein EED (Homo sapiens, UniProt O75530+P40337); test: PROTAC activity at PRC2 catalytic core EED/VHL (unknown origin) measured after 24 hrs by Western blot analysis; assay type: protein assay
[29] = biological target: von Hippel-Lindau disease tumor suppressor/Histone-lysine N-methyltransferase EZH2 (Homo sapiens, UniProt P40337+Q15910, Y641N); test: PROTAC activity at PRC2 catalytic core EZH2/EZH2 Y641N mutant/VHL (unknown origin) measured after 24 hrs by Western blot analysis
[30] = biological target: von Hippel-Lindau disease tumor suppressor/Polycomb protein SUZ12 (Homo sapiens, UniProt P40337+Q15022); test: PROTAC activity at PRC2 catalytic core SUZ12/VHL in human DLBCL cells measured after 24 hrs by Western blot analysis; assay type: cell-based
Polycomb protein EED [31] = biological target: T1, Polycomb protein EED; test: Inhibition of PRC2 catalytic core EED (unknown origin)

T2 sequence (P25440 whole entry, the tested form may be a part): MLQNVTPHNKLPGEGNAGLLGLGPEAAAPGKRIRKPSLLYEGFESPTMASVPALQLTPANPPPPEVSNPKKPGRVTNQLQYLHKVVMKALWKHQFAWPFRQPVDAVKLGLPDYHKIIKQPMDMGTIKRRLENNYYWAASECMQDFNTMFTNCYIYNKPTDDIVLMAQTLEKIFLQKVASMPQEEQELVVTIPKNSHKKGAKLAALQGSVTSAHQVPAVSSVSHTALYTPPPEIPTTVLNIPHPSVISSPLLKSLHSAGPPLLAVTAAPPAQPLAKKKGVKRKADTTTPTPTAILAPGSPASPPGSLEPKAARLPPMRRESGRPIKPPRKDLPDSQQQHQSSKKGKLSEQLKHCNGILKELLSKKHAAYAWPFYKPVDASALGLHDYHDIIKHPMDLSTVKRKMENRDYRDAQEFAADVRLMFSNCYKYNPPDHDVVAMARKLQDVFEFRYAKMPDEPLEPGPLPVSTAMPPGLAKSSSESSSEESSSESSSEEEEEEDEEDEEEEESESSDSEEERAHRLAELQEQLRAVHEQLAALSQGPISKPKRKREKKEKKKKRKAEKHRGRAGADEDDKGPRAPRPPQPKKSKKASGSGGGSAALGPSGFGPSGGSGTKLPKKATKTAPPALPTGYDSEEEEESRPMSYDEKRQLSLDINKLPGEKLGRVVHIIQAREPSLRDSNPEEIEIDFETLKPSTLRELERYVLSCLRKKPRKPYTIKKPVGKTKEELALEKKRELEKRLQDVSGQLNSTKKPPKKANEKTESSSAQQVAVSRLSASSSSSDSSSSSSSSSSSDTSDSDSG
T1 sequence (O75530 whole entry): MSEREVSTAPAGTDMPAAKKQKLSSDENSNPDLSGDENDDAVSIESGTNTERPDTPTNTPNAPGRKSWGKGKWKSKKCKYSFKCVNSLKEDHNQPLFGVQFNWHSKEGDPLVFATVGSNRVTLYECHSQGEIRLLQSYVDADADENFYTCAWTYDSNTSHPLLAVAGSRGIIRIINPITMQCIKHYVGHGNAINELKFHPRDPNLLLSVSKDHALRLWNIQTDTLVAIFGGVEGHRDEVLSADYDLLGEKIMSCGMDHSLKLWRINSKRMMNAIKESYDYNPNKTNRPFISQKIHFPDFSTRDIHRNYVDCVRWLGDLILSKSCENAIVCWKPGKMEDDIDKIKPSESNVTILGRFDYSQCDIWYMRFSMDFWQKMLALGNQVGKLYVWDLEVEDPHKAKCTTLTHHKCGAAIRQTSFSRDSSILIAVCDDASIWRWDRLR
T4 sequence (P51531 whole entry): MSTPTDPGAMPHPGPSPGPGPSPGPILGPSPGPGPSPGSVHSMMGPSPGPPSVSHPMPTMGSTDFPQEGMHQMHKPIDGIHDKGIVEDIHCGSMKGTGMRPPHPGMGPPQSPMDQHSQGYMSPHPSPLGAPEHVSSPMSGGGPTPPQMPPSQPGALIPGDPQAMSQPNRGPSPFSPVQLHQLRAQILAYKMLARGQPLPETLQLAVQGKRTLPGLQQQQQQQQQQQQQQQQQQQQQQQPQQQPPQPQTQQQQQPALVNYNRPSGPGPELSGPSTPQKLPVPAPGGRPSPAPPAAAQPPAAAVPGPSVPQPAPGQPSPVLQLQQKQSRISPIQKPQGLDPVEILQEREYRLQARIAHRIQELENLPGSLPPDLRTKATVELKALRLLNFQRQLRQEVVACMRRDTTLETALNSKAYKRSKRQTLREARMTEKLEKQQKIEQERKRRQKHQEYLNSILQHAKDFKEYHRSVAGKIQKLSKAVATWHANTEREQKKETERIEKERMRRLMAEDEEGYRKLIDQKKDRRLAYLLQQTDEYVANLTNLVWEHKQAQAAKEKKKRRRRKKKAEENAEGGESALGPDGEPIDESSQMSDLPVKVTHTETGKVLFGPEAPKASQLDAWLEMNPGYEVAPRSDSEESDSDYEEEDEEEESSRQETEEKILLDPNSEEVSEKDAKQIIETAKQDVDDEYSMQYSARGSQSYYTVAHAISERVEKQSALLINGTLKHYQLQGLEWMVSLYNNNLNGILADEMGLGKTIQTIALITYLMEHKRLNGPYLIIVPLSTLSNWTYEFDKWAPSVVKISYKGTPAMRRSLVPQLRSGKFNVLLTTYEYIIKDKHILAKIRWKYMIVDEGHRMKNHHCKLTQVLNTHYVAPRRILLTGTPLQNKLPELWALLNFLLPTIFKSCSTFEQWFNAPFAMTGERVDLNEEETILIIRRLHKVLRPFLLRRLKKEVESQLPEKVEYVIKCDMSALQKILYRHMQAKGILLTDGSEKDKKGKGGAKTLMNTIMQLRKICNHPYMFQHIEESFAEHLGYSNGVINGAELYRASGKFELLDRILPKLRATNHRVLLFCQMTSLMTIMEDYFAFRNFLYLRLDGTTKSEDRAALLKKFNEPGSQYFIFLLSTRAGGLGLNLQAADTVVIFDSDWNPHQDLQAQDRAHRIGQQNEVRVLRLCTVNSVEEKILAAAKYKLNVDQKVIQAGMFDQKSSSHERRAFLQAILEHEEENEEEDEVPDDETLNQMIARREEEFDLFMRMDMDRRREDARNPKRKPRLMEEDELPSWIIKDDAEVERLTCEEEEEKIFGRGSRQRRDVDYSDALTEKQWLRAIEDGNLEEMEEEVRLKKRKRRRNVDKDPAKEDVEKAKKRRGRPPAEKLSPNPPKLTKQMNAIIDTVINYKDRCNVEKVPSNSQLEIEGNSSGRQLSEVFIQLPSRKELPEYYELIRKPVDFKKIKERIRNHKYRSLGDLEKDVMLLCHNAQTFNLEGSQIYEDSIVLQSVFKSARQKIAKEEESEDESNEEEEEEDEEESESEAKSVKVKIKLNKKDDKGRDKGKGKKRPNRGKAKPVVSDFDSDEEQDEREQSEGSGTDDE
T4 sequence (P40337 whole entry): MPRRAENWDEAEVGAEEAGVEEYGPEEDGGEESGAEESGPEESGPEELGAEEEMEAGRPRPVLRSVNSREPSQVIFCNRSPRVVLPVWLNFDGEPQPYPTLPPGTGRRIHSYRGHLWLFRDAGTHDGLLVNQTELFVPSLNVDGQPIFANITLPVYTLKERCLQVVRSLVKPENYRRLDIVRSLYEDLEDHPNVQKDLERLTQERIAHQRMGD
T8 sequence (Q9UBN7 whole entry): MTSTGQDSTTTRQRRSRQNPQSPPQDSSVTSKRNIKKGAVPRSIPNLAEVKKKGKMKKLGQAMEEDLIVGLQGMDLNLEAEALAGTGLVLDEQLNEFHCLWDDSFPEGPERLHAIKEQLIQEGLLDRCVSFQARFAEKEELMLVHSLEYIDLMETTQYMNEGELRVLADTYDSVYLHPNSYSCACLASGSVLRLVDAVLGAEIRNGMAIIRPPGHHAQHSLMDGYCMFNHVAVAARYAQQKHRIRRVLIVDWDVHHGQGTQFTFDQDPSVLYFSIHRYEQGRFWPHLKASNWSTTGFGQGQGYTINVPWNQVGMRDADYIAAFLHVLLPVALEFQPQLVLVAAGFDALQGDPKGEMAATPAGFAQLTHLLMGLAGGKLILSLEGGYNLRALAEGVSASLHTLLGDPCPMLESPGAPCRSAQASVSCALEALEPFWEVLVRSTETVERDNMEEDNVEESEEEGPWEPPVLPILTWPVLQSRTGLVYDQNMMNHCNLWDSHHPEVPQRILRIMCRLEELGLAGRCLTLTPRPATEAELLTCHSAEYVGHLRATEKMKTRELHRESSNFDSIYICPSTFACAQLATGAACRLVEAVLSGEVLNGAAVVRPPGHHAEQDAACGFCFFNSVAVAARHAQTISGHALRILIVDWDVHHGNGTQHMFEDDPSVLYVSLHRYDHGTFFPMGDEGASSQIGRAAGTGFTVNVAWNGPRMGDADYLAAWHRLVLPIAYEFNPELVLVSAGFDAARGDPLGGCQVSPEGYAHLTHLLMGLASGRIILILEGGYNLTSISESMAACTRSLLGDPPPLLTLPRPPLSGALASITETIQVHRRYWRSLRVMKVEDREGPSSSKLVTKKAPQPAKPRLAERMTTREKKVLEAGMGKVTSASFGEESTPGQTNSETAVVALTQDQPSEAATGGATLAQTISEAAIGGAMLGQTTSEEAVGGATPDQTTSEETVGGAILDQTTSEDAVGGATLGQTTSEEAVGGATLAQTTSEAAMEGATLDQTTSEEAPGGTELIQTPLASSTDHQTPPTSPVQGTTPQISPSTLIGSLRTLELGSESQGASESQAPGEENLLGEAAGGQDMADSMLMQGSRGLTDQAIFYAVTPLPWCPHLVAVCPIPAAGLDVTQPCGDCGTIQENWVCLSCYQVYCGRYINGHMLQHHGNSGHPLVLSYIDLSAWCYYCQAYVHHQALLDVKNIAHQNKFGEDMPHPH
T8 sequence (Q96SW2 whole entry): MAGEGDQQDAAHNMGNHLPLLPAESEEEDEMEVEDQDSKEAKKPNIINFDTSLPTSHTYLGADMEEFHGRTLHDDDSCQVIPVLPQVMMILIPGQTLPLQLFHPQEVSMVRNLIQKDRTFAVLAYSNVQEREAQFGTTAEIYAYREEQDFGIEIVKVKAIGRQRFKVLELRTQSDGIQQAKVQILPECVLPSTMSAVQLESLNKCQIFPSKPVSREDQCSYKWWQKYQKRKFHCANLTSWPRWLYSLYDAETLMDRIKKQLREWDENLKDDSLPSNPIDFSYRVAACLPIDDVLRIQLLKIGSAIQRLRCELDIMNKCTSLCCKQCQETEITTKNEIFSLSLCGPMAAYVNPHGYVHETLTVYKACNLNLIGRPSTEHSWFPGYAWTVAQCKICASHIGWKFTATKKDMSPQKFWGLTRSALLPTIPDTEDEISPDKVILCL
Chain of SWI/SNF-related matrix-associated actin-dependent regulator of chromatin subfamily A member 2 (P51531 whole entry): as the sequence (P51531 whole entry) above
Chain of Protein deacetylase HDAC6 (Q9UBN7 whole entry): as the sequence (Q9UBN7 whole entry) above
Chain of von Hippel-Lindau disease tumor suppressor/Polycomb protein EED (O75530 whole entry): as the sequence (O75530 whole entry) above
Chain of von Hippel-Lindau disease tumor suppressor/Polycomb protein EED (P40337 whole entry): as the sequence (P40337 whole entry) above

Compound: Cc1nc(CCC(=O)NCCCCC(=O)N[C@@H](C(=O)N2C[C@H](O)C[C@H]2C(=O)NCc2ccc(-c3scnc3C)cc2)C(C)(C)C)ccc1-c1cnc(NCc2c(F)ccc3c2CCO3)n2cnnc12
- Kd (Polycomb protein EED [1]): 0.537 nM
- pIC50 [2]: 8.11
- GI50 (KARPAS-422): 57 nM

Compound: COc1ccc(/C=N/NC(=O)CCCCCCCC(=O)NO)cc1
- IC50 (Histone deacetylase 1): 2.28 nM
- IC50 (Histone deacetylase 2): 3.12 nM
- IC50 (Histone deacetylase 3): 1.82 nM
- IC50 [3]: 35.8 nM
- IC50 (Histone deacetylase 8): 60.3 nM
- IC50 [4]: 11.1 nM

Compound: Cc1ncsc1-c1ccc([C@H](C)NC(=O)[C@@H]2C[C@@H](O)CN2C(=O)C(NC(=O)COCCCOCCNC(=O)C[C@@H]2N=C(c3ccc(Cl)cc3)c3c(sc(C)c3C)-n3c(C)nnc32)C(C)(C)C)cc1 (single isomer, unassigned)
- Kd [5]: 34 nM
- Kd [6]: 4.7 nM
- EC50 [7]: < 5 nM

Compound: CCCOc1cccc(Oc2cc3c(cc2NS(=O)(=O)c2ccc(OC)c(OC)c2)n(C)c(=O)n3C)c1
- IC50 [8]: 43 nM

Compound: Cc1cc(C)c(CNC(=O)c2cc(-c3ccc(N4CCN(CCNC(=O)CC56CC7CC(CC(C7)C5)C6)CC4)nc3)cc3c2cnn3C(C)C)c(=O)[nH]1
- IC50 [9]: 120 nM

Compound: Cc1ncsc1-c1ccc(CNC(=O)[C@H]2C[C@H](O)CN2C(=O)[C@H](NC(=O)C2(F)CC2)C(C)(C)C)c(OCCOc2ccc(CN3CCN(c4cc(-c5ccccc5O)nnc4N)CC3)cc2)c1
- EC50 [10]: 6 nM
- EC50 [11]: 11 nM
- EC50 [12]: 32 nM
- EC50 [13]: 3.3 nM
- EC50 [14]: 15.6 nM
- IC50 [15]: 770 nM
- IC50 [16]: 560 nM
- IC50 [17]: 504 nM
- IC50 (MV4-11): 28 nM
- IC50 (SK-MEL-5): 77 nM
- IC50 [18]: 68 nM

Compound: Cc1nc(CCC(=O)NCCOc2ccc(OCC(=O)N[C@@H](C(=O)N3C[C@H](O)C[C@H]3C(=O)NCc3ccc(-c4scnc4C)cc3)C(C)(C)C)cc2)ccc1-c1cnc(NCc2c(F)ccc3c2CCO3)n2cnnc12
- Kd (Polycomb protein EED [1]): 0.955 nM
- pIC50 [2]: 8.17
- GI50 (KARPAS-422): 45 nM

Compound: CCCOc1cccc(Oc2cc3c(cc2NS(=O)(=O)c2cccc(C(=O)NCCOCCOCCOCC(=O)N[C@H](C(=O)N4C[C@H](O)C[C@H]4C(=O)NCc4ccc(-c5scnc5C)cc4)C(C)(C)C)c2)n(C)c(=O)n3C)c1
- Activity [19]: 72%
- Activity [20]: 72%

Compound: CC(=O)N[C@H](C(=O)N1C[C@H](O)C[C@H]1C(=O)NCc1ccc(-c2scnc2C)cc1)C(C)(C)SCCCCCNC(=O)C[C@@H]1N=C(c2ccc(Cl)cc2)c2c(sc(C)c2C)-n2c(C)nnc21
- Kd [5]: 111 nM
- Kd [6]: 94 nM
- Kd [21]: 35 nM
- Kd [22]: 39 nM
- Kd [23]: 75 nM
- Kd [24]: 44 nM

Compound: CCCCN(Cc1ccc(C(=O)NO)cc1)C(=O)Nc1ccc(NC(=O)CCCc2cn(CCOCCNc3cccc4c3C(=O)N(C3CCC(=O)NC3=O)C4=O)nn2)cc1 (stereo unspecified)
- EC50 [25]: 3.2 nM

Compound: CNC(=O)CCc1ccc(-c2cnc(NCc3c(F)ccc4c3CCO4)n3cnnc23)c(C)n1
- Kd (Polycomb protein EED [1]): 0.245 nM
- pIC50 [2]: 8.43

Compound: Cc1cc(C)c(CNC(=O)c2cc(-c3ccc(N4CCN(C(C)C)CC4)nc3)cc3c2cnn3C(C)C)c(=O)[nH]1
- IC50 [26]: > 2500 nM

Compound: O=C1CCC(N2C(=O)c3cccc(NCCOCCOCCn4cc(CCCCN(Cc5ccc(C(=O)NO)cc5)C(=O)Nc5ccccc5)nn4)c3C2=O)C(=O)N1 (stereo unspecified)
- EC50 [27]: 3.8 nM
- GI50 (MM1.S): 1210 nM

Compound: Cc1ncsc1-c1ccc(CNC(=O)[C@@H]2C[C@@H](O)CN2C(=O)[C@@H](NC(=O)CCCNC(=O)c2ccc(-c3cnc(NCc4ccco4)n4cnnc34)cc2)C(C)(C)C)cc1
- EC50 [28]: 610 nM
- EC50 [29]: 300 nM
- EC50 [30]: 590 nM
- IC50 (Polycomb protein EED [31]): 247 nM
